Measured values as given in ChEMBL document CHEMBL3046893, “Antimicrobial screening of novel synthesized benzimidazole nucleus containing 4-oxo-thiazolidine derivatives” (2012).
Converted amounts (≈) assume the structure as drawn.

Tests used:
Assay type in all cases: functional
Aspergillus clavatus = test: Antifungal activity against Aspergillus clavatus MTCC 1323
Aspergillus niger = test: Antifungal activity against Aspergillus niger MTCC 282
Candida albicans = test: Antifungal activity against Candida albicans MTCC 227
Streptococcus pyogenes = test: Antibacterial activity against Streptococcus pyogenes MTCC 442 after 24 to 48 hr by serial broth dilution method
Staphylococcus aureus = test: Antibacterial activity against Staphylococcus aureus MTCC 96 after 24 to 48 hr by serial broth dilution method
Escherichia coli = test: Antibacterial activity against Escherichia coli MTCC 443 after 24 to 48 hr by serial broth dilution method
Pseudomonas aeruginosa = test: Antibacterial activity against Pseudomonas aeruginosa MTCC 1688 after 24 to 48 hr by serial broth dilution method

Compound | MIC (Aspergillus clavatus) | MIC (Aspergillus niger) | MIC (Candida albicans) | MIC (Streptococcus pyogenes; read-out: MIC) | MIC (Staphylococcus aureus) | MIC (Escherichia coli) | MIC (Pseudomonas aeruginosa) | MIC (Streptococcus pyogenes)
Cc1ccc2nc(-c3ccccc3N3C(=O)CSC3c3ccc(O)cc3)[nH]c2c1 (stereo unspecified) | 1000 µg/mL (≈ 2490 µM) | 1000 µg/mL (≈ 2490 µM) | 1000 µg/mL (≈ 2490 µM) | 500 µg/mL (≈ 1250 µM) | 500 µg/mL (≈ 1250 µM) | 125 µg/mL (≈ 311 µM) | 250 µg/mL (≈ 623 µM) | –
Cc1ccc2nc(-c3ccccc3N3C(=O)CSC3c3ccc(F)cc3)[nH]c2c1 (stereo unspecified) | 1000 µg/mL (≈ 2480 µM) | 500 µg/mL (≈ 1240 µM) | 500 µg/mL (≈ 1240 µM) | 250 µg/mL (≈ 620 µM) | 250 µg/mL (≈ 620 µM) | 250 µg/mL (≈ 620 µM) | 250 µg/mL (≈ 620 µM) | –
Cc1ccc2nc(-c3ccccc3N3C(=O)CSC3c3ccc(Cl)cc3)[nH]c2c1 (stereo unspecified) | 1000 µg/mL (≈ 2380 µM) | 500 µg/mL (≈ 1190 µM) | 500 µg/mL (≈ 1190 µM) | 62.5 µg/mL (≈ 149 µM) | 100 µg/mL (≈ 238 µM) | 125 µg/mL (≈ 298 µM) | 250 µg/mL (≈ 595 µM) | –
COc1ccc(C2SCC(=O)N2c2ccccc2-c2nc3ccc(C)cc3[nH]2)cc1OC (stereo unspecified) | 1000 µg/mL (≈ 2240 µM) | 1000 µg/mL (≈ 2240 µM) | 500 µg/mL (≈ 1120 µM) | 1000 µg/mL (≈ 2240 µM) | 100 µg/mL (≈ 224 µM) | 100 µg/mL (≈ 224 µM) | 250 µg/mL (≈ 561 µM) | –
Cc1ccc2nc(-c3ccccc3N3C(=O)CSC3c3ccc([N+](=O)[O-])cc3)[nH]c2c1 (stereo unspecified) | 1000 µg/mL (≈ 2320 µM) | 1000 µg/mL (≈ 2320 µM) | 500 µg/mL (≈ 1160 µM) | 250 µg/mL (≈ 581 µM) | 250 µg/mL (≈ 581 µM) | 500 µg/mL (≈ 1160 µM) | 250 µg/mL (≈ 581 µM) | –
CC1(C)S[C@@H]2[C@H](NC(=O)[C@H](N)c3ccccc3)C(=O)N2[C@H]1C(=O)O [AMPICILLIN] | – | – | – | 100 µg/mL (≈ 286 µM) | 250 µg/mL (≈ 715 µM) | 100 µg/mL (≈ 286 µM) | 100 µg/mL (≈ 286 µM) | –
Cc1ccc2nc(-c3ccccc3N3C(=O)CSC3c3ccccc3Cl)[nH]c2c1 (stereo unspecified) | 1000 µg/mL (≈ 2380 µM) | 1000 µg/mL (≈ 2380 µM) | 1000 µg/mL (≈ 2380 µM) | 1000 µg/mL (≈ 2380 µM) | 500 µg/mL (≈ 1190 µM) | 1000 µg/mL (≈ 2380 µM) | 1000 µg/mL (≈ 2380 µM) | –
Cc1ccc2nc(-c3ccccc3N3C(=O)CSC3c3ccc([N+](=O)[O-])cc3[N+](=O)[O-])[nH]c2c1 (stereo unspecified) | 1000 µg/mL (≈ 2100 µM) | 1000 µg/mL (≈ 2100 µM) | 1000 µg/mL (≈ 2100 µM) | 1000 µg/mL (≈ 2100 µM) | 62.5 µg/mL (≈ 131 µM) | 62.5 µg/mL (≈ 131 µM) | 250 µg/mL (≈ 526 µM) | –
COc1cc(C2SCC(=O)N2c2ccccc2-c2nc3ccc(C)cc3[nH]2)cc(OC)c1OC (stereo unspecified) | 1000 µg/mL (≈ 2100 µM) | 1000 µg/mL (≈ 2100 µM) | 500 µg/mL (≈ 1050 µM) | 250 µg/mL (≈ 526 µM) | 500 µg/mL (≈ 1050 µM) | 500 µg/mL (≈ 1050 µM) | 250 µg/mL (≈ 526 µM) | –

More lines, in order of falling MIC (Aspergillus clavatus), values ahead:

MIC (Aspergillus clavatus) | MIC (Aspergillus niger) | MIC (Candida albicans) | MIC (Streptococcus pyogenes; read-out: MIC) | MIC (Staphylococcus aureus) | MIC (Escherichia coli) | MIC (Pseudomonas aeruginosa) | MIC (Streptococcus pyogenes) | Compound
1000 µg/mL (≈ 2320 µM) | 100 µg/mL (≈ 232 µM) | 100 µg/mL (≈ 232 µM) | 62.5 µg/mL (≈ 145 µM) | 100 µg/mL (≈ 232 µM) | 25 µg/mL (≈ 58.1 µM) | 250 µg/mL (≈ 581 µM) | – | Cc1ccc2nc(-c3ccccc3N3C(=O)CSC3c3cccc([N+](=O)[O-])c3)[nH]c2c1 (stereo unspecified)
1000 µg/mL (≈ 2320 µM) | 1000 µg/mL (≈ 2320 µM) | 1000 µg/mL (≈ 2320 µM) | 250 µg/mL (≈ 581 µM) | 1000 µg/mL (≈ 2320 µM) | 500 µg/mL (≈ 1160 µM) | 250 µg/mL (≈ 581 µM) | – | Cc1ccc2nc(-c3ccccc3N3C(=O)CSC3c3ccccc3[N+](=O)[O-])[nH]c2c1 (stereo unspecified)
500 µg/mL (≈ 1100 µM) | 500 µg/mL (≈ 1100 µM) | 250 µg/mL (≈ 550 µM) | – | 1000 µg/mL (≈ 2200 µM) | 62.5 µg/mL (≈ 138 µM) | 100 µg/mL (≈ 220 µM) | 500 µg/mL (≈ 1100 µM) | Cc1ccc2nc(-c3ccccc3N3C(=O)CSC3c3ccc(Cl)cc3Cl)[nH]c2c1 (stereo unspecified)
100 µg/mL (≈ 249 µM) | 1000 µg/mL (≈ 2490 µM) | 500 µg/mL (≈ 1250 µM) | 125 µg/mL (≈ 311 µM) | 250 µg/mL (≈ 623 µM) | 500 µg/mL (≈ 1250 µM) | 250 µg/mL (≈ 623 µM) | – | Cc1ccc2nc(-c3ccccc3N3C(=O)CSC3c3cccc(O)c3)[nH]c2c1 (stereo unspecified)
100 µg/mL (≈ 283 µM) | 100 µg/mL (≈ 283 µM) | 500 µg/mL (≈ 1420 µM) | – | – | – | – | – | COC1=CC(=O)C[C@@H](C)[C@]12Oc1c(Cl)c(OC)cc(OC)c1C2=O [GRISEOFULVIN]
